In test [1] the target is T1, GSPT1 (Homo sapiens, UniProt P15170+Q96SW2). Kind of test: Selectivity western blot assay in MM1 S cells, GSPT1. It counts as cell-based. Also on record: endogenous in cells; host or cells: MM1 S (ATCC CRL-2974). The settings on record: MM1 S cells, 0.3, 3 and 30 μM, 6 hours. On the procedure:
(§1) MM1 S cells were purchased from ATCC (cat. Number CRL-2974), sub-cultured in 90% RPMI 1640 with 10% FBS, supplemented with 1×P/S and incubated at 37° C., 5% CO2. Compounds were stored as 10 mM DMSO stock. For the assay, MM1 S cells (3 million cells/well) were plated in 6-well plates and incubated over night. Cells were treated with respective compounds using a serial dilution: 0.3 μM, 3 μM and 30 μM as well as a vehicle only (DMSO) control for 6 hours. Media with suspension cells was subsequently transferred to 15 mL conical tubes, wells rinsed twice with ice-cold PBS and merged with cell suspension in respective 15 mL conical tube. Cells were spinned down, supernatant aspirated, pellets resuspended in ice-cold PBS and transferred to microtubes. Cells were spinned down, supernatant aspirated and pellets resuspended in 120 μL RIPA lysis buffer supplemented with protease and phosphatase inhibitors. Cell lysates were incubated on ice for 20 minutes followed by centrifugation at >20,000×g for 5 min. Supernatants were transferred to fresh microtubes and stored at −80° C. Total protein concentration was determined using a BCA assay with a BSA standard curve and concentration of all samples was adjusted to 1 mg/mL. 25 μL 4×LDS sample buffer supplemented with 100 mM DTT was added to 75 μL sample. Samples were centrifuged (8,000×g, 1 min) and incubated at 95° C. for 5 min followed by another centrifugation step (8,000×g, 1 min). 20 μL of each sample was loaded on a 4-12% gel alongside a protein molecular weight marker. Gels were run in the presence of MOPS buffer at 80 Volts for 30 min, followed by 120 Volts for 1.5 h and proteins subsequently transferred onto nitrocellulose membranes at 20 Volts for 7 min using an iBlot2 Gel Transfer Device. Membranes were then cut horizontally into two pieces, covering 80-50 kDa and 50-25 kDa. Blocking the membranes was performed by gently shaking in 5% (w/v) skim milk in TSB-T for 1 hr at room temperature. All primary antibodies were used at a 1/1000 in 5% (w/v) BSA dissolved in TBST and incubated with membranes over night at 4° C. After three washes with 1×TBST for 5 min, HRP-coupled secondary antibodies diluted in 5% (w/v) BSA/TBST (Goat Anti-Rb IgG, dil. 1/10,000; Goat Anti-Mouse IgG, dil. 1/5000) were added for 1 hr at room temperature. After three washes with 1×TBST (5 minutes each), membranes were incubated with ECL reagent for 1 min at room temperature. Chemiluminescence signals were then detected using a LAS-4000 system with default settings and signals quantified using Image Studio Lite software (version 5.2). Membrane parts previously incubated with antibody against CK1 alpha were stripped off antibodies by incubating with stripping buffer for 30 minutes followed by three washed with TBST (5 min each), blocking with 5% (w/v) skim milk for 1 hr, and incubation with primary antibody against uGAPDH overnight at 4° C. Subsequent washes, incubation with secondary antibody and signal acquisition were performed as described above.
A general note: In western blotting, separated proteins are transferred to a membrane and probed.

For test [2], the target named is T1, GSPT1. Description: GSPT1 degradation immunofluorescence assay in CAL-51 cells. It counts as cell-based. Also on record: endogenous in cells; host or cells: CAL-51 (DSMZ ACC302). As to conditions: 6 hours, Table 5A, read-out: Activity for GSPT1 degradation, Code (DC50). On the procedure: CAL-51 cells were purchased from DSMZ (cat. Number ACC302), sub-cultured in 90% Dulbecco's MEM (4.5 g/L glucose, Gibco 11965)+10% heat inactivated FBS (BioConcept, 2-01F1361) and incubated at 37° C., 5% CO2. For the assay, imaging microtiterplate Cell Carrier 96 Ultra (Perkin Elmer 6055302) were pre-coated with Fibronectin (Sigma F085, 30 μl at 0.2 μg/ml) in PBS (100 μl, Gibco 14190) for 45 min at room temperature, rinsed with PBS and CAL-51 cells (30K cells/well) were plated and let to adhere overnight. Cells were treated with compounds typically using a serial dilution ranging from 30 μM to 0.1 nM for 6 hours. Compounds were stored at 10 mM DMSO stocks. Vehicle (DMSO), positive (CC-885, 10 μM) and rescue controls (positive control plus 0.2 μM bortezomib) were also included at this stage. Cells were subsequently rinsed with PBS and fixed in 10% Formalin solution (50 μl, Sigma HT5011)) for 20 mins at room temperature. Following three consecutive PBS washes (100 μl), cells were permeabilized in 0.1% Triton X-100 in PBS (Sigma 93443, 50 μl) for 15 mins at room temperature. Following three further PBS washes, 50 μl blocking buffer (1% BSA, Sigma A4503, in PBS) was added for 45 min for signal-to-noise reduction. Primary antibody (human GSPT1, Sigma HPA052488) was diluted in blocking buffer (dil. 1/300, 35 μl/well) and incubated with the cells overnight at 4° C. After three PBS washes, Alexa-fluor 488 coupled secondary antibodies (Invitrogen, A32731, dil. 1/1000), Alexa-fluor 647-Phalloidin (Invitrogen, A22287, dil. 1/200) and DAPI (Thermo, #62248, dil. 1/1000) were diluted in blocking buffer and incubated with the samples for 2 hours at room temperature. After three final PBS washes, samples were conserved in 100 μl PBS in the dark, until measurement. Image acquisition was performed on the Operetta High-Content Imager (Perkin-Elmer). Fluorescence intensity of Alexa-Fluor 488 (GSPT1), Alexa-Fluor 647 (Actin) and DAPI (Nucleus) were measured. For the determination of GSPT1 DC50 values, a custom algorithm implemented in the PerkinElmer image analysis software Harmony-Acapella® was developed. After user-defined setting of adjustment parameters, the analysis was run identically without human intervention for all image fields. DAPI staining of the nuclei was used to determine the location of cells using standard nuclei detection modules. Segmentation artifacts were removed by threshold-based filters for area, roundness and intensity. The outline of the cells was determined analogously from the sum of the normalized, smoothed DAPI and Actin channel, starting from each nucleus. The Alexa-Fluor 488 (GSPT1) signal intensity in each cell was finally measured, in order to obtain a Mean intensity per cell. GSPT1 degradation (DC50) was calculated after normalization to controls and data import in CDD vault Database, using non-linear regression.

The next test concerns the target T2, IKZF3 (Homo sapiens, UniProt Q96SW2+Q9UKT9).
T2 construct: endogenous in cells; host or cells: MM1 S (ATCC CRL-2974)
Kind of test: Selectivity western blot assay in MM1 S cells, IKZF3. Also on record: key: A represents no degradation observed at 30 μM; B represents trace degradation at 30 μM (below 20%); C represents weak degradation at 30 μM (below 50%); D represents degradation at 30 μM (>90%); E represents degradation at 3 μM (>90%); F represents degradation at 0.3 μM (>90%). The settings on record: MM1 S cells, 0.3, 3 and 30 μM, 6 hours. It counts as cell-based. On the procedure: as §1

The next test has as its target T3, CK1alpha (Homo sapiens, UniProt P48729+Q96SW2).
T3 construct: endogenous in cells; host or cells: MM1 S (ATCC CRL-2974)
Kind of test: Selectivity western blot assay in MM1 S cells, CK1alpha. The settings on record: MM1 S cells, 0.3, 3 and 30 μM, 6 hours. It is filed as cell-based. On the procedure: as §1

For a further test, the target named is T4, IKZF1 (Homo sapiens, UniProt Q13422+Q96SW2).
T4 construct: endogenous in cells; host or cells: MM1 S (ATCC CRL-2974)
T4 sequence (Q13422 whole entry): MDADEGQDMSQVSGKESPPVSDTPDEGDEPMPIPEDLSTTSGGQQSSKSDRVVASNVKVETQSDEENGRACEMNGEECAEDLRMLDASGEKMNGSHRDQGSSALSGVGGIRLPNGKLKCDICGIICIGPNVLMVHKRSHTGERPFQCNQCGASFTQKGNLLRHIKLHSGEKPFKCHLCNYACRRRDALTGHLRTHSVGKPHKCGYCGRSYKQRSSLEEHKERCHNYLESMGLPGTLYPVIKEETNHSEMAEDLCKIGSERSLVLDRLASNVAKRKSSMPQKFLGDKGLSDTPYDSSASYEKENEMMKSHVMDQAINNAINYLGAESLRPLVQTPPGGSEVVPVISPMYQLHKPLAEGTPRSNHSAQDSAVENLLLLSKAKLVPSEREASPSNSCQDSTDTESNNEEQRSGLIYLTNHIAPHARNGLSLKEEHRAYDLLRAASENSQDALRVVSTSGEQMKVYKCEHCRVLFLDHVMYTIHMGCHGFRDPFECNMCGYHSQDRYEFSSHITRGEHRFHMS
T4 sequence (Q96SW2 whole entry): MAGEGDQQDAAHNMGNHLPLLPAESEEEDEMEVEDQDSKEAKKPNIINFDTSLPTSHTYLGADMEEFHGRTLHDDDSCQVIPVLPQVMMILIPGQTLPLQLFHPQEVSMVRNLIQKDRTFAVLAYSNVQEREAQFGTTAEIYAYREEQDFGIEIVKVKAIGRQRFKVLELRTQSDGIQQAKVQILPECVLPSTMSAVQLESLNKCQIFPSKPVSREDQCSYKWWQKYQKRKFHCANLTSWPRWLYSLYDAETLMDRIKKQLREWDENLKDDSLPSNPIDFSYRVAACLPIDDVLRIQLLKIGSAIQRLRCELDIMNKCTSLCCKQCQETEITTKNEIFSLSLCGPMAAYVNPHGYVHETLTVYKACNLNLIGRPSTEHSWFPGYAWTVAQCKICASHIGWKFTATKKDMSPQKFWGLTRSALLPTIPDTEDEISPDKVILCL
T4 sequence (Q16531 whole entry partner): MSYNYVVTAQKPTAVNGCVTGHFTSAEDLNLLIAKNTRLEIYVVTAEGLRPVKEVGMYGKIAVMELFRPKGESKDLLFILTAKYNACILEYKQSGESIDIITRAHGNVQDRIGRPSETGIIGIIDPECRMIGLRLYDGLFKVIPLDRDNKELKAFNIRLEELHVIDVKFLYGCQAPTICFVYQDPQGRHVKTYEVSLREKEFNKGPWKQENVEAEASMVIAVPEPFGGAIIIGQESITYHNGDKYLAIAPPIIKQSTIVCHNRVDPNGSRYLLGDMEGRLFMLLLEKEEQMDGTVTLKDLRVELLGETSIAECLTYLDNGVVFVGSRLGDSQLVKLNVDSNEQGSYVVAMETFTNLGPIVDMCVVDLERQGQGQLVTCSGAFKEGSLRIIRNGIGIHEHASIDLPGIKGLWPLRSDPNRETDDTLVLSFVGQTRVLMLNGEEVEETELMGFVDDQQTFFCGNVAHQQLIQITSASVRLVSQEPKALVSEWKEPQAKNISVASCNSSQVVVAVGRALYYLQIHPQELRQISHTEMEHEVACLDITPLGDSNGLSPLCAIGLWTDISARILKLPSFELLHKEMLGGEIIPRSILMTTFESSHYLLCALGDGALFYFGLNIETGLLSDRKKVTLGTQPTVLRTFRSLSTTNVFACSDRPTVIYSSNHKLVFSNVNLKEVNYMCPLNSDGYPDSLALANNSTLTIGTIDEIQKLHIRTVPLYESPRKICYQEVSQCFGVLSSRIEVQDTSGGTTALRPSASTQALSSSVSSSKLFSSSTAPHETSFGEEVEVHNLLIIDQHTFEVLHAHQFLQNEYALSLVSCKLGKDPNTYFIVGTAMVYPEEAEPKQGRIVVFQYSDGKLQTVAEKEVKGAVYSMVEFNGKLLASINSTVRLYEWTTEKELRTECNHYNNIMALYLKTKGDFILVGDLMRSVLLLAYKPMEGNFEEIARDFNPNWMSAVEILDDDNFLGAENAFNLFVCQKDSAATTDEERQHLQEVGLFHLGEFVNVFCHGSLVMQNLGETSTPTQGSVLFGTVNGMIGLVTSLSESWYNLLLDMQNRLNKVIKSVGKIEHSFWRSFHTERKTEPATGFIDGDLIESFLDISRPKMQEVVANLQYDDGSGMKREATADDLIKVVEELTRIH
Description: Selectivity western blot assay in MM1 S cells, IKZF1. It is filed as cell-based. The settings on record: MM1 S cells, 0.3, 3 and 30 μM, 6 hours. Also on record: key: A represents no degradation observed at 30 μM; B represents trace degradation at 30 μM (below 20%); C represents weak degradation at 30 μM (below 50%); D represents degradation at 30 μM (>90%); E represents degradation at 3 μM (>90%); F represents degradation at 0.3 μM (>90%). On the procedure: as §1

The next test deals with T5, ZFP91 (Homo sapiens, UniProt Q96JP5+Q96SW2).
T5 construct: endogenous in cells; host or cells: MM1 S (ATCC CRL-2974)
T5 sequence (Q96JP5 whole entry): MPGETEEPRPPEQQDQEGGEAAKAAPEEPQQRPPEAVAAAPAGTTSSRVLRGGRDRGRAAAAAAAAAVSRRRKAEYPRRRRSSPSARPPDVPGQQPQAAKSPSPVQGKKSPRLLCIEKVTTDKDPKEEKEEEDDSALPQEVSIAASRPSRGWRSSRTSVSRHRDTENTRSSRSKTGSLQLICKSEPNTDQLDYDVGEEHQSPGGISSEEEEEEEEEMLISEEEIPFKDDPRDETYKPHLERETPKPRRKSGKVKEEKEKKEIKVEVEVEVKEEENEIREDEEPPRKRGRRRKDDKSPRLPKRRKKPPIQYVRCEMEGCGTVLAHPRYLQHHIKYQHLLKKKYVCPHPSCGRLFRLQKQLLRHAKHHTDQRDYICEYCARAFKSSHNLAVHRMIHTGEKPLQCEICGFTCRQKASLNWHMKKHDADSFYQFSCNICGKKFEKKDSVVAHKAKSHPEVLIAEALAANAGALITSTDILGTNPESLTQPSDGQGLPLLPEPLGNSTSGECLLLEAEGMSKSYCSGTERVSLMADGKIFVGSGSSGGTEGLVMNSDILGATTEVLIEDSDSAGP
T5 sequence (Q96SW2 whole entry): as the sequence (Q96SW2 whole entry) above
T5 sequence (Q16531 whole entry partner): as the sequence (Q16531 whole entry partner) above
Kind of test: Selectivity western blot assay in MM1 S cells, ZFP91. As to conditions: MM1 S cells, 0.3, 3 and 30 μM, 6 hours. It counts as cell-based. The protocol:
as §1

For test [3], the target named is T6, Full length wild-type cereblon CRBN (Homo sapiens, UniProt Q96SW2).
T6 construct: Full length wild-type cereblon CRBN (80.0 nM, 10 μL) was incubated in assay buffer
T6 sequence (Q96SW2 whole entry): as the sequence (Q96SW2 whole entry) above
Kind of test: Fluorescence polarization (FP) assay indicating cereblon binding. As to conditions: bounds stated; read-out: IC50 value. On the procedure:
Compound activity was monitored in a fluorescence polarization (FP) homogeneous assay using 1-[5-({2-[2-(2-{[2-(2,6-dioxopiperidin-3-yl)-1,3-dioxo-2,3-dihydro-1H-isoindol-4-yl]oxy}acetamido)ethoxy]ethyl}carbamoyl)pentyl]-3,3-dimethyl-2-[(1E,3E)-5-[(2E)-1,3,3-trimethyl-5-sulfo-2,3-dihydro-1H-indol-2-ylidene]penta-1,3-dien-1-yl]-3H-indol-1-ium-5-sulfonate as a fluorescent probe. Unless otherwise stated, all reagents were purchased from Sigma Aldrich. Enzymatic reactions were conducted in Perkin-Elmer Black 384 well ProxiPlate Plus (catalogue no. 6008269) in 10 μL total volume. Full length wild-type cereblon CRBN (80.0 nM, 10 μL) was incubated in assay buffer containing 20 mM HEPES (pH 8.0), […], 0.5 mM TCEP and 0.05% Tween 20 in the presence or absence of compound (300 nL). Inhibitors were stored as 10 mM DMSO stocks in an inert environment (low humidity, dark, low oxygen, room temperature) using the Storage Pod System. Compounds and DMSO were dispensed using the Echo E5XX (Labcyte Inc. USA) to give concentrations from 300 to 0.937 or 3000 to 9.3 nM in a 12 data point curve. […] Following incubation at room temperature for 30 min, the assay was initiated by dispensing the probe to a final concentration of 5 nM (2.5 nL of a 20 μM stock) using the Echo E5XX. FP was measured after a period of 12 hours using a Pherastar plate reader (BMG Labtech, Germany) exciting at 590 nm and measuring the amount of parallel and perpendicular light at 675 nm. The FP signal was subsequently normalized to the no-compound control (i.e., DMSO). Analysis and IC50 values were derived using Dotmatics (Dotmatics UK) software.
(In general: In fluorescence polarisation assays a small probe gives low polarisation when free and higher when bound to something large.)

Test [4] concerns HMEC engineered to express c-Myc tagged with EGFP. Kind of test: 3D spheroid assay, myc-HMEC (CellTiterGlo3D). As to conditions: Homo sapiens, bounds (codes D and E), read-out: EC50 value. It counts as cell-based. The protocol: Human mammary epithelial cells (HMEC) were engineered to express either c-Myc tagged with EGFP or EGFP alone (non myc) (analogous but distinct from Kessler J D et al, Science. 2012 Jan. 20; 335(6066):348-53. doi: 10.1126/science.1212728; Hsu T Y et al, Nature. 2015 Sep. 17; 525(7569):384-8. doi: 10.1038/nature14985). The engineered cells were seeded at 1000 (myc) or 4000 (non myc) cells/well in a 384 ultra-low attachment plate in a total volume of 40 μL HMEC cell culture media (DMEM/F12+10% HI-FBS+15 mM HEPES+0.5 ug/ml Hydrocortisone+10 ug/ml Insulin+20 ng/ml EGF). Plates were spun at 1200 rpm for 5 minutes at room temperature to ensure that cells have gathered in the middle of the well and incubated at 37° C. for 48 hrs before firing with compounds. On Day 2 (48 h post seeding) cells were imaged (brightfield and EGFP fluorescence) using the Celigo imaging cytometer prior to firing compounds. For primary screens, compounds were added at three concentrations (1.25, 10 and 30 uM) in a volume of 120 nL using the ECHO acoustic dispenser and spun at 2000 rpm for 2 minutes at room temperature before incubating at 37° C. for 5 days. […] On Day 7, prior to measuring cell viability using CellTiterGlo3D, cells were imaged (brightfield and EGFP fluorescence) on the Celigo imaging cytometer. The CellTiterGlo3D reagent is added at 30 uL/well and incubated at room temperature for 30 mins. After 30 mins of incubation, luminescence readings were recorded using the Perkin Elmer EnVision reader.
(In general: In ATP-based viability assays light output follows the ATP content of the culture.)

pEC50, pIC50: −log10 of the molar value.

T1 sequence (P15170 whole entry): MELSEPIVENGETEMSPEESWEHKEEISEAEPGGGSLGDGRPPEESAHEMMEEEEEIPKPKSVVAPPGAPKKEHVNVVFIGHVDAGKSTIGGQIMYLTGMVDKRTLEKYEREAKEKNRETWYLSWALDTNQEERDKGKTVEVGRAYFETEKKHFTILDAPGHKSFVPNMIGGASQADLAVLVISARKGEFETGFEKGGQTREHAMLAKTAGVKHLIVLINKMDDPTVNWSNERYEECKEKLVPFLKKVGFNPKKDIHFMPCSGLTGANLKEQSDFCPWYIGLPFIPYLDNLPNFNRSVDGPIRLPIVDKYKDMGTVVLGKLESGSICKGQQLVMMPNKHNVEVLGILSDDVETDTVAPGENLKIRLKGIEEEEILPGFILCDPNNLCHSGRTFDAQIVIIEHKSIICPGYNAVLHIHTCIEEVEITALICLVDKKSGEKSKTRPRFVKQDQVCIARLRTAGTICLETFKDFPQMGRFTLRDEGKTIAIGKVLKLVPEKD
T1 sequence (Q96SW2 whole entry): as the sequence (Q96SW2 whole entry) above
T1 sequence (Q16531 whole entry partner): as the sequence (Q16531 whole entry partner) above
T3 sequence (P48729 whole entry): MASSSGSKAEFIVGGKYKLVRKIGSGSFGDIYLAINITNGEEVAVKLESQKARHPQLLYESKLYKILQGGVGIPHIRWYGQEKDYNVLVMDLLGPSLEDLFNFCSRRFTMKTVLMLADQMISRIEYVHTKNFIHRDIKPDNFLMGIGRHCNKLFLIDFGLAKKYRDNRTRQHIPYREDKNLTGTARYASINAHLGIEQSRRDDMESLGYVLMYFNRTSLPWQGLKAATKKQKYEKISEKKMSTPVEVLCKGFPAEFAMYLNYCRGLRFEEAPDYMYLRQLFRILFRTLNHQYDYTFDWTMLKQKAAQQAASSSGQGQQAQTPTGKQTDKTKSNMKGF
T3 sequence (Q96SW2 whole entry): as the sequence (Q96SW2 whole entry) above
T3 sequence (Q16531 whole entry partner): as the sequence (Q16531 whole entry partner) above
T2 sequence (Q9UKT9 whole entry): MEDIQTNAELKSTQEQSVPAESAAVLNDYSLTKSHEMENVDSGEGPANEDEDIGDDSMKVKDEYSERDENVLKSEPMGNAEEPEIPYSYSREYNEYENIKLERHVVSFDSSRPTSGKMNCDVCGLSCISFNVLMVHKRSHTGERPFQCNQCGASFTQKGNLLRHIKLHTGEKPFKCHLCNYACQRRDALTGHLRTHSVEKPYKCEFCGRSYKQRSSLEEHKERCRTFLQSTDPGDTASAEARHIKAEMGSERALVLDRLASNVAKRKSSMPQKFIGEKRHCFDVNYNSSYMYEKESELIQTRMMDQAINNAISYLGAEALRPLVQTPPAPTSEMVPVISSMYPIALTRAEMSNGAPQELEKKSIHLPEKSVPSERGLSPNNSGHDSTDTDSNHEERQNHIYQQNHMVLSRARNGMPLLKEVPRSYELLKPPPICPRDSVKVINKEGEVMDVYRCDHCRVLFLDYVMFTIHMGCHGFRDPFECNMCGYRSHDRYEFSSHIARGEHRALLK
T2 sequence (Q96SW2 whole entry): as the sequence (Q96SW2 whole entry) above
T2 sequence (Q16531 whole entry partner): as the sequence (Q16531 whole entry partner) above

One may read the DC50 as the midpoint of the concentration-degradation curve. Turning to `O=C1CCC(N2Cc3ccc(COC(=O)Nc4cccc(OC(F)(F)F)c4)cc3C2=O)C(=O)N1` (stereo not shown) [Compound 203], the GSPT1 degradation entry on GSPT1 [1] is reported as “F (F represents degradation at 0.3 μM (>90%))”. The DC50 at GSPT1 [2] was ≤ 30 nM. At IKZF3, the IKZF3 degradation entry is listed as “A”. For the same compound, the CK1alpha degradation result on CK1alpha is “B (B represents trace degradation at 30 μM (below 20%))”. Besides, the IKZF1 degradation entry on IKZF1 was “A”. For the same compound, on ZFP91, the ZFP91 degradation entry is listed as “B (B represents trace degradation at 30 μM (below 20%))”.

As usually defined, the pIC50 is −log10 of the IC50, conventionally taken in molar units. As usually defined, the pEC50 is the EC50 on a negative log10 scale, so that one unit is a factor of ten. In the case of `Cc1cc(C)cc(NC(=O)NCc2ccc3c(c2)C(=O)N(C2CCC(=O)NC2=O)C3)c1` (stereo not shown) [Compound 20], the pIC50 in test [3] is > 6.22. Further, the negative logarithm of the EC50 (pEC50) in test [4] was ≥ 5.70.

Take `COc1ccc(NC(=O)NCc2ccc3c(c2)C(=O)N(C2CCC(=O)NC2=O)C3)cc1Cl` (stereo not shown) [Compound 59]: the pIC50 in test [3] is > 6.22. For the same compound, the pEC50 in test [4] was ≥ 5.70.

As to `O=C1CCC(N2Cc3ccc(CNC(=O)Nc4ccc(Cl)c(Cl)c4)cc3C2=O)C(=O)N1` (stereo not shown) [Compound 46], the pIC50 in test [3] is > 6.22. For the same compound, the pEC50 in test [4] is ≥ 5.70.

With `Cc1ccc(NC(=O)NCc2ccc3c(c2)C(=O)N(C2CCC(=O)NC2=O)C3)cc1C` (stereo not shown) [Compound 68], the pEC50 in test [4] is ≥ 5.70.

For `O=C1CCC(N2Cc3ccc(CNC(=O)Nc4cccc(C(F)(F)F)c4)cc3C2=O)C(=O)N1` (stereo not shown) [Compound 47], in test [3], the pIC50 was > 6.22. The pEC50 in test [4] was ≥ 5.70.

In the case of `CCc1cccc(NC(=O)NCc2ccc3c(c2)C(=O)N(C2CCC(=O)NC2=O)C3)c1` (stereo not shown) [Compound 31], the pEC50 in test [4] is ≥ 5.70.

For the origin of these results see US20240261274A1, “TREATMENT OF MYC-DRIVEN CANCERS WITH GSPT1 DEGRADERS” (MONTE ROSA THERAPEUTICS, INC., priority 2021, published 2024).
